How the values were obtained:
Assay type in all cases: cell-based
SMARCA2 [1] = target: T1, SMARCA2 (Homo sapiens, UniProt P51531); test: SMARCA2 Western blot degradation in MV4-11 cells; set-up: SMARCA2/SMARCA4 protein degradation selectivity in MV4-11 cells; endogenous in cells; host or cells: MV4-11; conditions: for Dmax: MV4-11, MV4-11 cells, read-out: SMARCA2 MSD MV411 degradation 24 h: average Dmax %; for Dmax / DC50 / SMARCA2 MSD MV411 degradation 24 h: average Dmax %: 24 h; for DC50 / Selectivity in MV411 / SMARCA2 MSD MV411 degradation 24 h: average Dmax %: MV4-11 cells; for DC50: read-out: SMARCA2 MSD MV411 degradation 24 h: Mean external-Abs DC50; for Selectivity in MV411: SMARCA2/4 selectivity
SMARCA2 [2] = target: T1, SMARCA2; test: MSD SMARCA2 degradation in A549 cell line; conditions: for Dmax: A549, A549 cells; for Dmax / DC50: 24 h; for DC50 / SMARCA2 MSD A549 degradation 24 h: Average Dmax %: A549 cells; for DC50: read-out: SMARCA2 MSD A549 degradation 24 h: Average external-Abs DC50
Procedure, shortened: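 A549 cells treated 24 h with compound, 3-fold series from 1000 nM. Lysates captured on MSD plates and SMARCA2 quantified with anti-SMARCA2 and SULFO-TAG secondary antibodies (electrochemiluminescence). DC50 and Dmax (% degradation at 24 h) reported as letter bins.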

SMARCA4 = target: T2, SMARCA4 (Homo sapiens, UniProt P51532); test: SMARCA4 Western blot degradation in MV4-11 cells; conditions: for Dmax: MV4-11, MV4-11 cells, read-out: SMARCA4 MSD MV411 degradation 24 h: average Dmax %; for Dmax / DC50: 24 h; for DC50 / SMARCA4 MSD MV411 degradation 24 h: average Dmax %: MV4-11 cells; for DC50: read-out: SMARCA4 MSD MV411 degradation 24 h: Mean external-Abs DC50
T2 construct: SMARCA2/SMARCA4 protein degradation selectivity in MV4-11 cells; endogenous in cells; host or cells: MV4-11
Procedure, shortened: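 MV4-11 cells (4×10^6/well) treated with compound for 24 h, lysed in RIPA with protease/phosphatase inhibitors, and SMARCA2, SMARCA4 and beta-actin detected by Western blot with LI-COR readout. Values reported as letter-coded DC50, 24 h Dmax % and SMARCA2/4 selectivity fold.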

T1 sequence (P51531 whole entry): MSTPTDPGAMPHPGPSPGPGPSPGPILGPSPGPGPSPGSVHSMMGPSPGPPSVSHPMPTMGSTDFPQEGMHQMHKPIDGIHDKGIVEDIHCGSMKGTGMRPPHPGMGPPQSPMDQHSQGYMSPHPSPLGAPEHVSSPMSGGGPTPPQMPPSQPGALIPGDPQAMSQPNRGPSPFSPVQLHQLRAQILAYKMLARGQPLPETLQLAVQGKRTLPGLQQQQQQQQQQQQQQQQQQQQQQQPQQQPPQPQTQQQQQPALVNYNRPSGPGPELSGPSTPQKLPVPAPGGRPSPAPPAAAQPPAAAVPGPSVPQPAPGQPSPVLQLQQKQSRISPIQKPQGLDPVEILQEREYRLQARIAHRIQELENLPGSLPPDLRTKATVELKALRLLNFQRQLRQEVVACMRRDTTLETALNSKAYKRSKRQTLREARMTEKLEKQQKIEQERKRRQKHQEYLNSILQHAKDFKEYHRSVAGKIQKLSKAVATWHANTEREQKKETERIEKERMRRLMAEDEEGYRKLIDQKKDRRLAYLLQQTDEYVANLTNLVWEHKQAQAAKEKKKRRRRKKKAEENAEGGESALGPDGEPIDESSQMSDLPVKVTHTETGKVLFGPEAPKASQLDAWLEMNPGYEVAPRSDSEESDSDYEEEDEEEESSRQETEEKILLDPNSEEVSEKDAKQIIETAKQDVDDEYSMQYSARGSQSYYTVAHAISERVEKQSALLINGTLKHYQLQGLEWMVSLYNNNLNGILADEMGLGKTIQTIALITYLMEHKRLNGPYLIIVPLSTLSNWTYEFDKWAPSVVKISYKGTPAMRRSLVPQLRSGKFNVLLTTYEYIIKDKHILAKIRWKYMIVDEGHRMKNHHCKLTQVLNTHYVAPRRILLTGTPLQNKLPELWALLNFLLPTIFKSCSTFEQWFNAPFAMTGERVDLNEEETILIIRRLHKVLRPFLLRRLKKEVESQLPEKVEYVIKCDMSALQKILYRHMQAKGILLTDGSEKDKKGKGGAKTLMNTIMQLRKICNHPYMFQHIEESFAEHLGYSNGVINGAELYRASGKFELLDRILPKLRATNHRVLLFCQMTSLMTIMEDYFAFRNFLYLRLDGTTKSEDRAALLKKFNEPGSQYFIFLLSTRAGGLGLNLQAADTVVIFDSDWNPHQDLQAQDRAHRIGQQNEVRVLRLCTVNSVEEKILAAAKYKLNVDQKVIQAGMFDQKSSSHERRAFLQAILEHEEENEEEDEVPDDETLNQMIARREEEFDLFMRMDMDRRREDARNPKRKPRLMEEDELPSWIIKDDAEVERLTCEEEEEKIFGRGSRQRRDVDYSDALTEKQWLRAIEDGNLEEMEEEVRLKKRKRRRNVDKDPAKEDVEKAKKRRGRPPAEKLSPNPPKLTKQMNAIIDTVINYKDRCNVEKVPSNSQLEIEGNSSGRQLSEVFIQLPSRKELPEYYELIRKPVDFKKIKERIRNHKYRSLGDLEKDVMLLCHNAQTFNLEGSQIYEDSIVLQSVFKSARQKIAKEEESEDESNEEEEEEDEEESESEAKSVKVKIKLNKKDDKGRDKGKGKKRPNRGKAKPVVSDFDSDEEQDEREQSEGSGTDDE
T2 sequence (P51532 whole entry): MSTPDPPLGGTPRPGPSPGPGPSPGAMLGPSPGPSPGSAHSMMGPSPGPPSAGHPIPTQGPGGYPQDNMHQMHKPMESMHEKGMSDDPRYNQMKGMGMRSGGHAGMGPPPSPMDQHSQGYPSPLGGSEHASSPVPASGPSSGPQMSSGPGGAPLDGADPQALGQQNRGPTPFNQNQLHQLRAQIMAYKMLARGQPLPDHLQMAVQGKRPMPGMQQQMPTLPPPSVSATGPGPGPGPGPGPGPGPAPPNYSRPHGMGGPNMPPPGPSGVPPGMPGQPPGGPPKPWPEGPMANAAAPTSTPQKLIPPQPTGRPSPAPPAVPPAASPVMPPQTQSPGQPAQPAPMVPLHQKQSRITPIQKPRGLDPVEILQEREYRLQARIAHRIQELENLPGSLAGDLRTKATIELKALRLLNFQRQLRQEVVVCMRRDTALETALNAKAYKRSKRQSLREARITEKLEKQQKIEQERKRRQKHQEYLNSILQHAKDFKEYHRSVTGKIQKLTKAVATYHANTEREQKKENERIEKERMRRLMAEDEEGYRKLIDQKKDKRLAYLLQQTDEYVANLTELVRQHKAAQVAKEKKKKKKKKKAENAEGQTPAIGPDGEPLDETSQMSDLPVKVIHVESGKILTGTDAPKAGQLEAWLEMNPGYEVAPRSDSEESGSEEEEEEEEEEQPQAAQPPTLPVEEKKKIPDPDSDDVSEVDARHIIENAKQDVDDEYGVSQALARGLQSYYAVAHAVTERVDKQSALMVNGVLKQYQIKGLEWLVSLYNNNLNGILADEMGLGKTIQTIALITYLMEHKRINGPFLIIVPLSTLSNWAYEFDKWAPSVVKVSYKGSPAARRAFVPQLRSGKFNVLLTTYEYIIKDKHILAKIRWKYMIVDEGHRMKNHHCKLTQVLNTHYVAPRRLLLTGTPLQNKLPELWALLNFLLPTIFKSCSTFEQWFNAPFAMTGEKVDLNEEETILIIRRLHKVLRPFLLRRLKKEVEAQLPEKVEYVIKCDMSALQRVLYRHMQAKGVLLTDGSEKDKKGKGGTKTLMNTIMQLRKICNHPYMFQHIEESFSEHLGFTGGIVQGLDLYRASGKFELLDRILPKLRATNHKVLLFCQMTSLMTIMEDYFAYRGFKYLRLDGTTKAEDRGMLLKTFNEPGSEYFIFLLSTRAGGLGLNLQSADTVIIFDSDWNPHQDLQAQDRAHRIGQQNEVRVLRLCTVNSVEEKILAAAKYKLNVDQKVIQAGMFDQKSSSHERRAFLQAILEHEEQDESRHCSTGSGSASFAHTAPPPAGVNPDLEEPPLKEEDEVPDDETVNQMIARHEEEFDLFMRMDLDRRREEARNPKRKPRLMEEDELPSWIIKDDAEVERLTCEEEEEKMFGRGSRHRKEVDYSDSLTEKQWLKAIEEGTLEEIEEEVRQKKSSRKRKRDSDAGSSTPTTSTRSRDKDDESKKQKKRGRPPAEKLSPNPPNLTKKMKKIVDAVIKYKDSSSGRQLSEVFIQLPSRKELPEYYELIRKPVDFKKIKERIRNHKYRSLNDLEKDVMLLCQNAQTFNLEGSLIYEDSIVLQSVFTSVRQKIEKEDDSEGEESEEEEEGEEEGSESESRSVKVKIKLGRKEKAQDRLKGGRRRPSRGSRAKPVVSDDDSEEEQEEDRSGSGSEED

Dmax (SMARCA2 [1]) [%]	DC50 (SMARCA2 [1]) [nM]	Selectivity in MV411 (SMARCA2 [1])	Dmax (SMARCA2 [2]) [%]	DC50 (SMARCA2 [2]) [nM]	Dmax (SMARCA4) [%]	DC50 (SMARCA4) [nM]	SMARCA2 MSD MV411 degradation 24 h: average Dmax % (SMARCA2 [1])	SMARCA2 MSD A549 degradation 24 h: Average Dmax % (SMARCA2 [2])	SMARCA4 MSD MV411 degradation 24 h: average Dmax % (SMARCA4)	SMILES
50 to 70	10 to 100	C (C (10-100 fold))	> 90	> 100	50 to 70	> 100				C#Cc1ccc(CNC(=O)[C@@H]2C[C@@H](O)CN2C(=O)[C@@H](NC(=O)N2CCN(C[C@@H]3CCN(c4cnc(N5CCc6[nH]c7nnc(-c8ccccc8O)cc7c6[C@H]5C)nc4)C3)CC2)C(C)(C)C)cc1 (single isomer, unassigned) [I-161]
50 to 70	10 to 100	C (C (10-100 fold))	> 90	> 100	50 to 70	> 100				C#Cc1ccc(CNC(=O)[C@@H]2C[C@@H](O)CN2C(=O)[C@@H](NC(=O)N2CCN(C[C@H]3CCN(c4cnc(N5CCc6[nH]c7nnc(-c8ccccc8O)cc7c6[C@H]5C)nc4)C3)CC2)C(C)(C)C)cc1 (single isomer, unassigned) [I-162]
	1 to 10	C (C (10-100 fold))		10 to 50		> 100	B (B (>70-90% degradation))	A (A (>90% degradation))	C (C (50-70% degradation))	C#Cc1ccc(CNC(=O)[C@@H]2C[C@@H](O)CN2C(=O)[C@@H](NC(=O)[C@H]2CCC3(CC2)C[C@H](N2CCN(c4cnc(N5CCN6c7cc(-c8ccccc8O)nnc7NC[C@H]6C5)nc4)CC2)C3)C(C)(C)C)cc1 (single isomer, unassigned) [I-170]
70 to 90	10 to 100	B (B (>100-500 fold))	> 90	> 100	< 50	> 100				C#Cc1ccc(CNC(=O)[C@@H]2C[C@@H](O)CN2C(=O)[C@@H](NC(=O)[C@H]2CCC3(CC2)C[C@H](N2CCC(N4CCC(N5CCN6c7cc(-c8ccccc8O)nnc7NC[C@H]6C5)CC4)CC2)C3)C(C)(C)C)cc1 (single isomer, unassigned) [I-174]
	1 to 10	B (B (>100-500 fold))		50 to 100		> 100	B (B (>70-90% degradation))	A (A (>90% degradation))	D (D (<50% degradation))	C#Cc1ccc(CNC(=O)[C@@H]2C[C@@H](O)CN2C(=O)[C@@H](NC(=O)[C@H]2CCC3(CC2)C[C@H](N2CCC(N4CCC(N5CCN6c7cc(-c8ccccc8O)nnc7NC[C@H]6C5)CC4)CC2)C3)C(C)(C)C)cc1 (single isomer, unassigned) [I-175]
70 to 90	10 to 100	C (C (10-100 fold))	> 90	> 100	50 to 70	> 100				C#Cc1ccc(CNC(=O)[C@@H]2C[C@@H](O)CN2C(=O)[C@@H](NC(=O)[C@H]2CCC3(CC2)C[C@H](N2CCC(N4CCC(N5CCN6c7cc(-c8ccccc8O)nnc7NC[C@H]6C5)CC4)CC2)C3)C(C)(C)C)c(OC)c1 (single isomer, unassigned) [I-177]
70 to 90	10 to 100	B (B (>100-500 fold))	> 90	> 100	50 to 70	> 100				C#Cc1ccc(CNC(=O)[C@@H]2C[C@@H](O)CN2C(=O)[C@@H](NC(=O)N2CC3(CC(N4CCC(N5CCC(N6CCc7[nH]c8nnc(-c9ccccc9O)cc8c7[C@H]6C)CC5)CC4)C3)C2)C(C)(C)C)cc1 (single isomer, unassigned) [I-179]
> 90	1 to 10	C (C (10-100 fold))	> 90	10 to 50	70 to 90	10 to 100				C#Cc1ccc(CNC(=O)[C@@H]2C[C@@H](O)CN2C(=O)[C@@H](NC(=O)[C@H]2CCC3(CC2)C[C@H](N2CCN(c4cnc(N5CCN6c7cc(-c8ccccc8O)nnc7NC[C@H]6C5)nc4)CC2)C3)C(C)(C)C)c(OC)c1 (single isomer, unassigned) [I-195]
	1 to 10	C (C (10-100 fold))		10 to 50		> 100	B (B (>70-90% degradation))	A (A (>90% degradation))	C (C (50-70% degradation))	C#Cc1ccc(CNC(=O)[C@@H]2C[C@@H](O)CN2C(=O)[C@@H](NC(=O)[C@H]2CCC3(CC2)C[C@H](N2CCN(c4cnc(N5CCN6c7cc(-c8ccccc8O)nnc7NC[C@H]6C5)nc4)CC2)C3)C(C)(C)C)c(OC)c1 (single isomer, unassigned) [I-196]
70 to 90	1 to 10	C (C (10-100 fold))	> 90	> 100	50 to 70	> 100				C#Cc1ccc(CNC(=O)[C@@H]2C[C@@H](O)CN2C(=O)[C@@H](NC(=O)C2CCN(C[C@H]3CC[C@@H](N4CCc5[nH]c6nnc(-c7ccccc7O)cc6c5[C@H]4C)CC3)CC2)C(C)(C)C)cc1 (single isomer, unassigned) [I-201]
70 to 90	1 to 10	C (C (10-100 fold))	> 90	> 100	50 to 70	> 100				C#Cc1ccc(CNC(=O)[C@@H]2C[C@@H](O)CN2C(=O)[C@@H](NC(=O)C2CCN(C[C@H]3CC[C@H](N4CCc5[nH]c6nnc(-c7ccccc7O)cc6c5[C@H]4C)CC3)CC2)C(C)(C)C)cc1 (single isomer, unassigned) [I-202]
70 to 90	1 to 10	A (A (>500 fold))	> 90	50 to 100	< 50	> 100				C#Cc1ccc(C2(NC(=O)[C@@H]3C[C@@H](O)CN3C(=O)[C@@H](NC(=O)[C@H]3CC4(C3)C[C@H](N3CCC(N5CCC(N6CCN7c8cc(-c9ccccc9O)nnc8NC[C@H]7C6)CC5)CC3)C4)C(C)(C)C)CC2)cc1 (single isomer, unassigned) [I-211]
70 to 90	1 to 10	B (B (>100-500 fold))	> 90	> 100	< 50	> 100				C#Cc1ccc([C@H](C)NC(=O)[C@@H]2C[C@@H](O)CN2C(=O)[C@@H](NC(=O)[C@H]2CC3(C2)C[C@H](N2CCC(N4CCC(N5CCN6c7cc(-c8ccccc8O)nnc7NC[C@H]6C5)CC4)CC2)C3)C(C)(C)C)cc1 (single isomer, unassigned) [I-213]
70 to 90	10 to 100	B (B (>100-500 fold))	> 90	> 100	< 50	> 100				C#Cc1ccc(CNC(=O)[C@@H]2C[C@@H](O)CN2C(=O)[C@@H](NC(=O)[C@H]2CCC3(CC2)C[C@H](N2CCC(N4CC5(CC(N6CCN7c8cc(-c9ccccc9O)nnc8NC[C@H]7C6)C5)C4)CC2)C3)C(C)(C)C)c(Cl)c1 (single isomer, unassigned) [I-220]
50 to 70	10 to 100	C (C (10-100 fold))	> 90	> 100	< 50	> 100				C#Cc1ccc(CNC(=O)[C@@H]2C[C@@H](O)CN2C(=O)[C@@H](NC(=O)[C@H]2CCC3(CC2)C[C@H](N2CCC(N4CCC(N5CCN6c7cc(-c8ccccc8O)nnc7NC[C@H]6C5)CC4)CC2)C3)C(C)(C)C)c(Cl)c1 (single isomer, unassigned) [I-221]

From patent US20250170248A1, “SMARCA DEGRADERS AND USES THEREOF” (Kymera Therapeutics, Inc., priority 2021, published 2025)
